Experimental data published in ChEMBL document CHEMBL3988442, “University of Dundee, Small-Polar-MMV Screening Library” (2021).
Values joined by “and” are separate entries in the source; they are usually repeats but may differ in a detail not shown here. Equal entries are not always repeated.

How the values were obtained:
[1] = target: Polyketide synthase Pks13 (Mycobacterium tuberculosis (strain ATCC 25618 / H37Rv), UniProt I6X8D2); experiment: Mycobacterium tuberculosis Polyketide synthase 13 Thioesterase (PKS13); assay type: functional
Sequence of Polyketide synthase Pks13 (I6X8D2 whole entry): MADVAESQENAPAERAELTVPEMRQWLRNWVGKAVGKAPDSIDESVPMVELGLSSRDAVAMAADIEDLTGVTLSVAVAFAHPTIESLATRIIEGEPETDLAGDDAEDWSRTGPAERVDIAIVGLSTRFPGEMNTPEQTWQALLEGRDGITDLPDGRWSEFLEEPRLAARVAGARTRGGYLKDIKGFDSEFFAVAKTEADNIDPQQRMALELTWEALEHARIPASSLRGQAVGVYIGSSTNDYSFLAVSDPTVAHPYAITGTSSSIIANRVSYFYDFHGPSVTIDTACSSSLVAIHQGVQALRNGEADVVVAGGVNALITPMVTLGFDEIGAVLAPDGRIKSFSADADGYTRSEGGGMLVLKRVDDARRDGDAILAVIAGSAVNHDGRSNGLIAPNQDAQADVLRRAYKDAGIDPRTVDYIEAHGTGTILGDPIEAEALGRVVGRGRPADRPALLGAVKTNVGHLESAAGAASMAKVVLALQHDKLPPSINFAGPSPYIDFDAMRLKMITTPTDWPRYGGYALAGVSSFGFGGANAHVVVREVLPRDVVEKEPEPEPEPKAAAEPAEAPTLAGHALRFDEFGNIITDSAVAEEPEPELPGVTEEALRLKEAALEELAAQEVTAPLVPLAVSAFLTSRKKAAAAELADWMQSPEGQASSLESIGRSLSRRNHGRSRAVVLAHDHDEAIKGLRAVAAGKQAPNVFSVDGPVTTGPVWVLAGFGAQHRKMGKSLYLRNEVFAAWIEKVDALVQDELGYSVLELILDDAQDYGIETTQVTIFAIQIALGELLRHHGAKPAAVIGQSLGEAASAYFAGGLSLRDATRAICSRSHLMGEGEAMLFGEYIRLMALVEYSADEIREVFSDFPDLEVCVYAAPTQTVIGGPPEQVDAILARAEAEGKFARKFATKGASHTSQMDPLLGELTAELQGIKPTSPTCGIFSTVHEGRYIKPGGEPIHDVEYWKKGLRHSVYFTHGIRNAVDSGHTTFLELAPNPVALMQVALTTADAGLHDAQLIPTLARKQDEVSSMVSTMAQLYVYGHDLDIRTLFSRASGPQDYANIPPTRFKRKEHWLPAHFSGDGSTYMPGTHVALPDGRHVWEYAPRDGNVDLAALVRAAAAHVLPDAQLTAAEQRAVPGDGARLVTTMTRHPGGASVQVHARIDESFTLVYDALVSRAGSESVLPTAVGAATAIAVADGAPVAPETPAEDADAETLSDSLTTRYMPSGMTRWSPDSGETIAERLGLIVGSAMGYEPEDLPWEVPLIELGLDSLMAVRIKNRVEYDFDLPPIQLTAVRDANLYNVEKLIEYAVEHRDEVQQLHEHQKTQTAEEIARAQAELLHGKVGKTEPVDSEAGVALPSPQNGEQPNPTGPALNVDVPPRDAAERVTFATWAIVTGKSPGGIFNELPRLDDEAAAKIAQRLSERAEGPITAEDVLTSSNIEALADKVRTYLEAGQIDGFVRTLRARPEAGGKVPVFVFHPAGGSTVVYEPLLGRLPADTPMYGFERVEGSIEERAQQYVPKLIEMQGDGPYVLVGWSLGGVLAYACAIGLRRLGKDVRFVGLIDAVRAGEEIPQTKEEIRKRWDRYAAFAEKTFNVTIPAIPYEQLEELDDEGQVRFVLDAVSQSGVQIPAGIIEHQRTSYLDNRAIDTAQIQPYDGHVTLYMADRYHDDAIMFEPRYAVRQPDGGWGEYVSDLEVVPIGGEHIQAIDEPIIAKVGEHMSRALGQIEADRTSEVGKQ

ClpP1P2 = ClpP1P2 (Mycobacterium tuberculosis (strain ATCC 25618 / H37Rv), UniProt P9WPC3+P9WPC5); experiment: in vitro assay to detect presence of AMC directly proportional to the activity of ClpP1P2. GHDDI collaboration.; assay type: functional
Sequence of ClpP1P2 (P9WPC5 whole entry): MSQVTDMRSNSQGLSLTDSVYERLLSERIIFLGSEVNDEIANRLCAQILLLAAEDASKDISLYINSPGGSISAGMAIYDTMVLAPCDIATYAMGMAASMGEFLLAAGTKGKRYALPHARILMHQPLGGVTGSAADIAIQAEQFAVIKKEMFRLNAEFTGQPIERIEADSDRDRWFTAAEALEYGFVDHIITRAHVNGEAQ
Sequence of ClpP1P2 (P9WPC3 whole entry): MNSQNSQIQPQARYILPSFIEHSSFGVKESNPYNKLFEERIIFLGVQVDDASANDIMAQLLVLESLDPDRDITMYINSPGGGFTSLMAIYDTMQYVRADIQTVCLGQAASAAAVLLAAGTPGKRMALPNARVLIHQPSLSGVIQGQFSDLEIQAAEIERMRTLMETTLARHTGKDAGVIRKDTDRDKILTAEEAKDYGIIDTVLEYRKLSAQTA

[2] = microbe, parasite or virus in culture; conditions: Mycobacterium tuberculosis, 96 h, read-out: pIC50 (converted)
[3] = microbe, parasite or virus in culture; conditions: Mycobacterium tuberculosis, 72 h, read-out: pIC50 (converted)
Plasmodium falciparum = experiment: Calibr Malaria Delayed Death Assay SOP; assay type: functional, organism-based; conditions: for IC50: Plasmodium falciparum

Row | Compound | IC50 [1] | other results
1 | CC(C)N(CC(N)=O)C(=O)c1cnc(-c2ccc3c(c2)OCO3)s1 | 11.1 µM and 12.4 µM | IC50 (ClpP1P2): > 100 µM
2 | CNC(=O)COc1ccc(CNc2cncc(-n3cccn3)n2)cc1 | 11.8 µM and > 100 µM | IC50 (ClpP1P2): > 100 µM
3 | CNC(=O)c1cc2c(nc1NCC1CC1)CCN(S(C)(=O)=O)CC2 | 14.8 µM and 22.2 µM | IC50 (ClpP1P2): > 100 µM
4 | CCc1nc(C2CCCN2C(=O)c2nc(C)n3ccccc23)no1 (stereo unspecified) | 8.2 µM and 6.66 µM | IC50 (ClpP1P2): > 100 µM
5 | Cc1nc2c(Nc3cccc(C#N)c3)nc(N)nc2n1C | > 100 µM | IC50 [2]: 4.14 µM; IC50 [3]: 3.75 µM
6 | Cc1nc(C(=O)N(C)CC(F)(F)C(F)(F)F)c2ccccn12 | > 57.5 µM and 27.2 µM | IC50 (ClpP1P2): > 100 µM
7 | CNC(=O)c1cc2c(nc1NC(C)C)CCNCC2 | 60.3 µM and 25 µM | IC50 (ClpP1P2): > 100 µM
8 | CNC(=O)c1cc2c(nc1NCC1CC1)CCNCC2 | 72 µM and 24.7 µM | IC50 (ClpP1P2): > 100 µM
9 | Cc1cc(C)c2cc(CNC(C)C)c3nn(C)c(=O)n3c2c1 | 17 µM and 18.4 µM | IC50 (ClpP1P2): > 100 µM
10 | Cc1nn(C)cc1C1=NS(=O)(=O)N(C)C(C(=O)Nc2ccc(Br)cc2)=C1 | 28.6 µM and 36.6 µM | pIC50 (Plasmodium falciparum): 6.699; IC50 (Plasmodium falciparum): 0.238 µM
11 | CCOC(=O)N1CCN(C(=O)C2CC(=O)N(c3ccccc3Br)C2)CC1 (stereo unspecified) | 19.4 µM and 22.4 µM | IC50 [2]: 9.89 µM; IC50 [3]: 39.8 µM
12 | COc1ccc(CC(C)Nc2cccc(SC)c2)cc1 (stereo unspecified) | 24.5 µM and 22 µM | IC50 [2]: 45.4 µM; IC50 [3]: > 50.1 µM
13 | CC(O)CN1CCC(CNCc2c[nH]nc2C(C)(C)C)CC1 (stereo unspecified) | > 100 µM | IC50 [2]: 35.4 µM; IC50 [3]: 45.6 µM
14 | CCOc1cc(C(=O)n2cc(C)cn2)cc(OCC)c1OCC | 19.9 µM and 11.2 µM | IC50 [2]: > 50.1 µM; IC50 [3]: 29.7 µM
15 | Cc1ccc(-c2ncc(C(=O)NCCNc3ncccn3)s2)c(C)c1 | 12 µM and 14.8 µM | –
16 | CN(C)CC(=O)N1Cc2nc(C(=O)NCc3ccccc3)oc2C1 | > 100 µM | –
17 | Cn1nc(C2CCCN2)c2c(C(=O)NCC(F)(F)F)cc(C3CC3)nc21 (stereo unspecified) | > 100 µM | –
18 | COc1ccc2nc(C[C@@H]3C[C@@H](C(C)C)[C@H](CN)C=C3C)[nH]c2n1 | > 100 µM | –
19 | Cc1cc(S(=O)(=O)Nc2cccc(OC(F)F)c2)sc1C(=O)O | 16.4 µM and 3.37 µM | –
20 | Cc1cccn2c(=O)cc(CSCC(=O)Nc3nnc(C(C)C)s3)nc12 | > 100 µM | –
21 | COCC1CCN(C(=O)c2cc(-c3ccco3)nc3c(Cl)cccc23)C1 (stereo unspecified) | 34.6 µM and > 100 µM | –
22 | N#Cc1cccc(N2CCC(CO)(CCCc3ccccc3)CC2)n1 | > 18.6 µM and 25.5 µM | –
23 | CC(C)(C)OCCN1CCCC1c1nc(Cc2ccc(F)cc2)no1 (stereo unspecified) | > 100 µM | –
24 | CCc1noc(Cn2c(=O)c3c(C(F)(F)F)cc(C)nc3n2C)n1 | 36 µM and 34.8 µM | –
25 | O=C(c1ccc(-n2ccnc2)cc1)N1CCN(c2cnccn2)CC1 | > 100 µM | –
26 | CCc1[nH]c2c(CNc3nc(C)cc(NC)n3)cc(C)cc2c1C | > 100 µM | IC50 [2]: 30.7 µM; pIC50 (Plasmodium falciparum): 6.194; IC50 (Plasmodium falciparum): 0.657 µM; IC50 [3]: 23.7 µM

Row | Compound | IC50 [1] | other results
27 | Cc1cc(NCc2cccc(C#N)c2)ccc1Br | 20.6 µM and 18 µM | –
28 | Cc1c(C(=O)N2CCOCC2)nnn1-c1ccc2ncccc2c1 | > 100 µM | –
29 | O=C1CCCN1Cc1ncn2c1CN(C(=O)NC1CCCC1)CCC2 | > 100 µM | –
30 | O=c1[nH]c2cc3c(cc2cc1CN1CCCC1c1ccccn1)OCO3 (stereo unspecified) | > 100 µM and 70.3 µM | –
31 | Cc1ccc(CNC(=O)NCCCn2nc3ccccn3c2=O)s1 | > 100 µM | –
32 | CN(C)c1nccc(-c2c[nH][nH]c2=O)n1 | > 100 µM | –
33 | O=S(=O)(c1c(N2CCCCC2)ccc2nonc12)N1CCCCC1 | 26.1 µM and 29.2 µM | –
34 | CCN1CCC(N[C@@H]2CC[C@@H]2NC(=O)Cc2csc(C)n2)CC1 | > 100 µM | –
35 | CN(C[C@@H]1CCC[C@@H]2CN(c3ncccn3)C[C@@H]21)C1CC1 | > 100 µM | –
36 | Cc1ccc(CN2CCCC(c3nn(C)c4nccnc34)C2)s1 (stereo unspecified) | > 100 µM | –
37 | COc1ccc(-c2ccnc3nc(N4CCCCC4)[nH]c(=O)c23)cc1 | 19.6 µM and 3.94 µM | –
38 | N#Cc1cc(C#N)c(SCC(=O)Nc2ccc(F)cc2)nc1N | 19.3 µM and 21.8 µM | –
39 | O=C(C1CC1)N1CCc2ccccc2C12CCNCC2 | > 100 µM | –
40 | CC(=O)N1N=C(c2ccco2)OC1C(=O)NCC(C)C (stereo unspecified) | > 100 µM | –
41 | CCc1ccc(S(=O)(=O)NCC2CCN(c3cnccn3)CC2)s1 | 18.4 µM and 29.5 µM | –
42 | CC(=O)N1CCC(NC(=O)c2cc(Cl)ccc2O)CC1 | > 100 µM and 80.2 µM | –
43 | Cc1cc(C)c2cc(CNCc3cccnc3)c3nn(C)c(=O)n3c2c1 | 59.1 µM | –
44 | O=C(Nc1cnc(N2CCOCC2)nc1)c1ccc(C(F)(F)F)cc1 | 22.3 µM and 20.4 µM | –
45 | O=C1CNc2ncnc(N3CCN(Cc4ccccc4F)CC3)c2N1 | > 100 µM | –
46 | Cc1ccc(C(=O)N2CCN(c3ncnc4nc(N)ccc34)CC2)o1 | > 100 µM | –
47 | COc1ccc(C2CCCN2C(=O)c2cc3c([nH]c2=O)CCC3)cc1 (stereo unspecified) | 31.9 µM and 34.5 µM | –
48 | CCc1cnc(N2CC[C@H]3[C@@H]2CCC(=O)N3CC2CCOCC2)nc1 | > 100 µM | –
49 | CC(C)c1nc(CN2CCc3onc(-c4cccc(F)c4)c3C2)no1 | > 100 µM | –
50 | CC(C)(C)c1cc(NC(=O)CN2CCC(N3CCNC3=O)CC2)on1 | > 100 µM | –
51 | CCOC1CC2(CCN(C(=O)Cc3ccccn3)CC2)C1 | > 100 µM | –
52 | CCOCC1CCCN(C(=O)NCc2ccc(-c3ccn[nH]3)cc2)C1 (stereo unspecified) | > 100 µM | –
